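Test compounds were applied to cells in 96-well plates for 48 hours at 5 doses. Definition used: TGI = concentration required for complete inhibition of growth.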
How the values were obtained:
Assay in all cases: NCI tumour cell line growth inhibition, 48 h
HT29 colon = system: HT29 colon
SF-539 CNS = system: SF-539 CNS
HOP-92 NSCLC = system: HOP-92 NSCLC
U251 CNS = system: U251 CNS
SK-MEL-2 melanoma = system: SK-MEL-2 melanoma
ACHN renal = system: ACHN renal
K-562 leukemia = system: K-562 leukemia
HCT-116 colon = system: HCT-116 colon
HOP-62 NSCLC = system: HOP-62 NSCLC
SNB-19 CNS = system: SNB-19 CNS
MALME-3M melanoma = system: MALME-3M melanoma
NCI-H226 lung = system: NCI-H226 lung
MDA-MB-231 breast = system: MDA-MB-231 breast
OVCAR-5 ovarian = system: OVCAR-5 ovarian
SR leukemia = system: SR leukemia
A549 NSCLC = system: A549 NSCLC
SN12C renal = system: SN12C renal
SW-620 colon = system: SW-620 colon
UACC-62 melanoma = system: UACC-62 melanoma
NCI/ADR-RES ovarian = system: NCI/ADR-RES ovarian
M14 melanoma = system: M14 melanoma
CAKI-1 renal = system: CAKI-1 renal
SK-OV-3 ovarian = system: SK-OV-3 ovarian
PC-3 prostate = system: PC-3 prostate
T-47D breast = system: T-47D breast
DU-145 prostate = system: DU-145 prostate
786-0 renal = system: 786-0 renal
BT-549 breast = system: BT-549 breast
SF-295 CNS = system: SF-295 CNS
HCT-15 colon = system: HCT-15 colon
MDA-MB-435 = system: MDA-MB-435
HL-60(TB) leukemia = system: HL-60(TB) leukemia
IGROV1 ovarian = system: IGROV1 ovarian
KM12 colon = system: KM12 colon
SK-MEL-5 melanoma = system: SK-MEL-5 melanoma
OVCAR-8 ovarian = system: OVCAR-8 ovarian
NCI-H460 lung = system: NCI-H460 lung
UACC-257 melanoma = system: UACC-257 melanoma
MDA-N = system: MDA-N
RXF 393 renal = system: RXF 393 renal
MCF7 breast = system: MCF7 breast
UO-31 renal = system: UO-31 renal
OVCAR-4 ovarian = system: OVCAR-4 ovarian
LOX IMVI melanoma = system: LOX IMVI melanoma
RPMI-8226 leukemia = system: RPMI-8226 leukemia
NCI-H23 lung = system: NCI-H23 lung
SF-268 CNS = system: SF-268 CNS
CCRF-CEM leukemia = system: CCRF-CEM leukemia
OVCAR-3 ovarian = system: OVCAR-3 ovarian
NCI-H522 lung = system: NCI-H522 lung
SK-MEL-28 melanoma = system: SK-MEL-28 melanoma
COLO 205 colon = system: COLO 205 colon
TK-10 renal = system: TK-10 renal
MOLT-4 leukemia = system: MOLT-4 leukemia
A498 renal = system: A498 renal

Measured: TGI

OC1c2ccccc2C(O)C2OC12 (stereo not given)
> 100 µM: all assays above

Source: PubChem BioAssay (NCI)
